Experiments:
RXRα = target: T1, RXRα (Homo sapiens, UniProt P19793); assay: ligand binding assay, RXRα; settings: read-out: RXR Bind Ki α
T1 construct: expressed in transfected cells
T1 sequence (P19793 1-462): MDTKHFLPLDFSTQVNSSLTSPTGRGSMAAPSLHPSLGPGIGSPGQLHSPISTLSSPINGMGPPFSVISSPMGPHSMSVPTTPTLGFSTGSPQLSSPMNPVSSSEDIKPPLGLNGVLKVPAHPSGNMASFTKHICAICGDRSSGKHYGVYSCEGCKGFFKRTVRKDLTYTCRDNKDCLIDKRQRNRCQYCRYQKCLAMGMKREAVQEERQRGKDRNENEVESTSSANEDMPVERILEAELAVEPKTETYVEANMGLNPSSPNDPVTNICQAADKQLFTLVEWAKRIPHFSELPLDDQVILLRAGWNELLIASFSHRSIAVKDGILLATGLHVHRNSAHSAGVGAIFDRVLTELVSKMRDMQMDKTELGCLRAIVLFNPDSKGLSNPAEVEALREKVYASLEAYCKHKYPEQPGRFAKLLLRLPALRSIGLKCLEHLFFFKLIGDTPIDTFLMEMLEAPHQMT
Excerpt: (§1) Other assays described below, measure the ability of the compounds of the present invention to bind to, and/or activate various retinoid receptor subtypes. When in these assays a compound binds to a given receptor subtype and activates the transcription of a reporter gene through that subtype, then the compound is considered an agonist of that receptor subtype. […] In the below described assays the ability of the compounds to bind to RARα, RARβ, RARγ, RXRα, RXRβ and RXRγ receptors, and the ability or inability of the compounds to activate transcription of a reporter gene through these receptor subtypes can be tested. […] However, some of the compounds of the invention may behave as retinoid antagonists or partial antagonists and/or as inverse agonists. Because of the complex distribution of the different retinoid receptors in various organs of the mammalian body partial agonists and partial antagonists and compounds which have the characteristics of both may lend themselves to particularly useful therapeutic applications and may avoid serious side effects of conventional retinoid drugs.
(§2) A holoreceptor transactivation assay and a ligand binding assay which measure the antagonist/agonist like activity of the compounds of the invention, or their ability to bind to the several retinoid receptor subtypes, respectively, are described in published PCT Application No. WO WO93/11755 (particularly on pages 30-33 and 37-41) published on Jun. 24, 1993, the specification of which is also incorporated herein by reference. A detailed experimental procedure for holoreceptor transactivations has been described by Heyman et al. Cell 68, 397-406, (1992); Allegretto et al. J. Biol. Chem. 268, 26625-26633, and Mangelsdorf et al. The Retinoids: Biology, Chemistry and Medicine, pp 319-349, Raven Press Ltd., New York, which are expressly incorporated herein by reference. The results obtained in this assay are expressed in EC50 numbers, as they are also in the chimeric receptor transactivation assay. The results of ligand binding assay are expressed in Kd numbers. (See Cheng et al. Biochemical Pharmacology Vol. 22 pp 3099-3108, expressly incorporated herein by reference.)
(§3) Table 1 discloses the activity of certain exemplary compounds of the invention in the above-described chimeric receptor transactivation assay, holoreceptor transactivation assay and a ligand binding assays. Particularly, the transactivation data pertaining to RAR receptors were obtained in the chimeric assay, and the data pertaining to transactivation of RXR receptors were obtained in the holoreceptor transactivation assay.

RARγ = target: T2, RARγ (Homo sapiens, UniProt P13631); assay: ligand binding assay, RARγ; settings: read-out: RAR Bind Ki γ
T2 sequence (P13631 1-454): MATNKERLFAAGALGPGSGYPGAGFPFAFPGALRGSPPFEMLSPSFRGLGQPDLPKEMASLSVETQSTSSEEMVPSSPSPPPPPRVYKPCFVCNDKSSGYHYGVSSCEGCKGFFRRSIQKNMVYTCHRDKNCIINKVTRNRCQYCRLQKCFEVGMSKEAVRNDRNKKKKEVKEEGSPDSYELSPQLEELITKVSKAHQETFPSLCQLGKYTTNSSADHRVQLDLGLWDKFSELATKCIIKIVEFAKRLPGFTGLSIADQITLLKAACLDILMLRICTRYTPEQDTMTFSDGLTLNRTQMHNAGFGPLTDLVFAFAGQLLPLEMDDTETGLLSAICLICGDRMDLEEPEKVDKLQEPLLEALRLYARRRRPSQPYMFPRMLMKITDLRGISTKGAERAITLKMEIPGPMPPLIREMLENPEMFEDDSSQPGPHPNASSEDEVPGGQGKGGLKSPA
Excerpt: as §1, §2, §3

RXRγ = target: T3, RXRγ (Homo sapiens, UniProt P48443); assay: ligand binding assay, RXRγ; settings: read-out: RXR Bind Ki γ
T3 sequence (P48443 1-463): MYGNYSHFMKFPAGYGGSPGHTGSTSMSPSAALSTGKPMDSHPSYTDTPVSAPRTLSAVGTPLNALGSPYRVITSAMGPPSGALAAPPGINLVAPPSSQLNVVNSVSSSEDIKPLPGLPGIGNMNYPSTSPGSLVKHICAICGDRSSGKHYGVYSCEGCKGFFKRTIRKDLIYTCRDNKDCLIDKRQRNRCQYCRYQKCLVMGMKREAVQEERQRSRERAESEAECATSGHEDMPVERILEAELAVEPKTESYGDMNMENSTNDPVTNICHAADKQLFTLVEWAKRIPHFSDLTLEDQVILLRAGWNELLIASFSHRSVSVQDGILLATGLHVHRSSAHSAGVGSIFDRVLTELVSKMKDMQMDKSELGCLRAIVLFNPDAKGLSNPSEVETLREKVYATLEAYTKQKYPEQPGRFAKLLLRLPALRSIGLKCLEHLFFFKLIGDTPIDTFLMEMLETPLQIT
Excerpt: as §1, §2, §3

RARα = target: T4, RARα (Homo sapiens, UniProt P10276); assay: ligand binding assay, RARα; settings: read-out: RAR Bind Ki α
T4 sequence (P10276 1-462): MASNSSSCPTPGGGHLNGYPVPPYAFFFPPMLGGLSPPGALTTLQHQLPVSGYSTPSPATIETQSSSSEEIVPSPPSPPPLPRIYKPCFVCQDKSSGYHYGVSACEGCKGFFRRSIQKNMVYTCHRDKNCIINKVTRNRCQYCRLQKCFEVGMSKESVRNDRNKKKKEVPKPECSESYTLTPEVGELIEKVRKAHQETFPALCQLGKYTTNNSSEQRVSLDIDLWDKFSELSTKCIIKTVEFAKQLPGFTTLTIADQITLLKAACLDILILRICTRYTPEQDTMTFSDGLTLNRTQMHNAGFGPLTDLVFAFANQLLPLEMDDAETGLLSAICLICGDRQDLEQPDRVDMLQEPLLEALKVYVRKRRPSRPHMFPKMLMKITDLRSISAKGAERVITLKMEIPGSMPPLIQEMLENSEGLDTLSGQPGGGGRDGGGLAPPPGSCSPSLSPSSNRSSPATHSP
Excerpt: as §1, §2, §3

RARβ = target: T5, RARβ (Homo sapiens, UniProt P10826); assay: ligand binding assay, RARβ; settings: read-out: RAR Bind Ki β
T5 sequence (P10826 1-448 isoform P10826-2): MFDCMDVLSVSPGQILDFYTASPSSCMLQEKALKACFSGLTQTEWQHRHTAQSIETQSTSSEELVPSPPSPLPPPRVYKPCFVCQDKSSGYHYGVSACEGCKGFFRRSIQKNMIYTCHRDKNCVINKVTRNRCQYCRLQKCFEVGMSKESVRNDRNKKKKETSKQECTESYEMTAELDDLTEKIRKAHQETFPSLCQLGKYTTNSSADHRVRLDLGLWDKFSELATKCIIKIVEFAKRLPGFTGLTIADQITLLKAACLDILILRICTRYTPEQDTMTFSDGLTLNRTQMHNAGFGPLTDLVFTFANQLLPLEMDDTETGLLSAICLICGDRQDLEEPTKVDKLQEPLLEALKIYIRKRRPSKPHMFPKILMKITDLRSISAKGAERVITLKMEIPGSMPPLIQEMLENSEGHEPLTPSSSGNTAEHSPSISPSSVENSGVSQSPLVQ
Excerpt: as §1, §2, §3

ornithine decarboxylase = settings: literature; cited from earlier work

CC(C)N1C(=O)CC(C)(C)c2cc(N(C)c3ccc(C(=O)O)cc3)ccc21 [Compound 5, 4-[(1-Isopropyl-4,4-dimethyl-2-oxo-1,2,3,4-tetrahydroquinolin-6-yl)methylamino]benzoic Acid]
Ki (RXRα): 56 µM | Ki (RARγ): > 30 µM | Ki (RXRγ): > 100 µM | Ki (RARα): > 30 µM | Ki (RARβ): > 30 µM

CC1=C(/C=C/C(C)=C/C=C/C(C)=C/C(=O)O)C(C)(C)CCC1 [Retinoic acid, retinoic acid]
inhibition of induction of ODC activity by TPA (ornithine decarboxylase): inhibits this induction of ODC activity by TPA
